Several values for one entry are separate records, joined by “and”; a condition that tells them apart may be missing. Identical values can stand only once.
Tested on: Escherichia coli. ess.
Assay: Agar diffusion bioassay of diluted original antibiotic solutions (Example 9)
Format: cell-based
Design: unit not given here
Settings: in duplicate, indicator organism Escherichia coli. ess.
Description: Example 2(a) above was repeated using SCV (15) as the starting material. [drawing 27] Antibiotic in reaction mixtures was estimated by the agar diffusion method. Cyclization reaction mixtures were bioassayed using Micrococcus luteus ATCC 9341 and Escherichia coli Ess as indicator organisms. Ring expansion reaction mixtures were bioassayed using E. coli Ess as indicator organism in agar plates supplemented with penicillinase at 2 x 10^5 units/ml.
One hour after the antibiotics were administered blood was collected from the rats into sterile citrate containing syringes. Blood samples were centrifuged to sediment red blood cells and 20 micro litre amounts of plasma were bioassayed in duplicate using Escherichia coli. ess. as the indicator organism. Original antibiotic solutions were also diluted and bioassayed in duplicate.

CC1=C(C(=O)O)N2C(=O)[C@@H](NC(=O)CSCC(N)C(=O)O)[C@H]2SC1 (stereo partly shown) [(17), Carboxymethylcysteinyl-Desacetoxycephalosporin C]
bioassay of original antibiotic solution (1 microgram per millilitre): 17.5 and 17.0 | bioassay of original antibiotic solution (10 micrograms per millilitre): 33

CC(=O)OCC1=C(C(=O)[O-])N2C(=O)[C@@H](NC(=O)CCCC(N)C(=O)O)[C@H]2SC1.[Na+] (stereo partly shown) [Na-Ceph-C, reference compound]
bioassay of original antibiotic solution (1 microgram per millilitre): 8.8 | bioassay of original antibiotic solution (10 micrograms per millilitre): 23.5

Reference: patent EP0144170B1, “Biosynthesis of unnatural cephalosporins” (QUEEN'S UNIVERSITY AT KINGSTON, priority 1983, dated 1985)
